Assay [1] concerns the target HPTPβ (Homo sapiens, UniProt P23467). Kind of assay: HPTPβ inhibition (IC50). The format is biochemical.
Assay [2] deals with T1, PTP1B (Homo sapiens, UniProt P18031).
T1 sequence (P18031 1-435): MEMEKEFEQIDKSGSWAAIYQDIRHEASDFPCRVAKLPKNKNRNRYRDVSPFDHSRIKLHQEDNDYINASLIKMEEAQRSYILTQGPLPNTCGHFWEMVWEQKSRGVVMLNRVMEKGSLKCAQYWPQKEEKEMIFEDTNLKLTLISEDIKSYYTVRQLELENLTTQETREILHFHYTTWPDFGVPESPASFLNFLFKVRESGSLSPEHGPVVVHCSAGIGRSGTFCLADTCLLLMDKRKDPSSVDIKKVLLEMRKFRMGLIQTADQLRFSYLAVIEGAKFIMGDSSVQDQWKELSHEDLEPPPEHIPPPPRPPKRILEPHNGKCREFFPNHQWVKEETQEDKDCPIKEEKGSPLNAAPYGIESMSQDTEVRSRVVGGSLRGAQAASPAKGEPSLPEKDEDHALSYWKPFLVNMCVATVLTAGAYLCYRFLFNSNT
The assay is described as follows: PTP1B inhibition (IC50). The format is biochemical.

pIC50: −log10 of the molar value.

In general, pIC50 refers to the IC50 on a negative log10 scale, so that one unit is a factor of ten. Higher therefore signals a small IC50.

Sequence of HPTPβ (P23467 23-1997): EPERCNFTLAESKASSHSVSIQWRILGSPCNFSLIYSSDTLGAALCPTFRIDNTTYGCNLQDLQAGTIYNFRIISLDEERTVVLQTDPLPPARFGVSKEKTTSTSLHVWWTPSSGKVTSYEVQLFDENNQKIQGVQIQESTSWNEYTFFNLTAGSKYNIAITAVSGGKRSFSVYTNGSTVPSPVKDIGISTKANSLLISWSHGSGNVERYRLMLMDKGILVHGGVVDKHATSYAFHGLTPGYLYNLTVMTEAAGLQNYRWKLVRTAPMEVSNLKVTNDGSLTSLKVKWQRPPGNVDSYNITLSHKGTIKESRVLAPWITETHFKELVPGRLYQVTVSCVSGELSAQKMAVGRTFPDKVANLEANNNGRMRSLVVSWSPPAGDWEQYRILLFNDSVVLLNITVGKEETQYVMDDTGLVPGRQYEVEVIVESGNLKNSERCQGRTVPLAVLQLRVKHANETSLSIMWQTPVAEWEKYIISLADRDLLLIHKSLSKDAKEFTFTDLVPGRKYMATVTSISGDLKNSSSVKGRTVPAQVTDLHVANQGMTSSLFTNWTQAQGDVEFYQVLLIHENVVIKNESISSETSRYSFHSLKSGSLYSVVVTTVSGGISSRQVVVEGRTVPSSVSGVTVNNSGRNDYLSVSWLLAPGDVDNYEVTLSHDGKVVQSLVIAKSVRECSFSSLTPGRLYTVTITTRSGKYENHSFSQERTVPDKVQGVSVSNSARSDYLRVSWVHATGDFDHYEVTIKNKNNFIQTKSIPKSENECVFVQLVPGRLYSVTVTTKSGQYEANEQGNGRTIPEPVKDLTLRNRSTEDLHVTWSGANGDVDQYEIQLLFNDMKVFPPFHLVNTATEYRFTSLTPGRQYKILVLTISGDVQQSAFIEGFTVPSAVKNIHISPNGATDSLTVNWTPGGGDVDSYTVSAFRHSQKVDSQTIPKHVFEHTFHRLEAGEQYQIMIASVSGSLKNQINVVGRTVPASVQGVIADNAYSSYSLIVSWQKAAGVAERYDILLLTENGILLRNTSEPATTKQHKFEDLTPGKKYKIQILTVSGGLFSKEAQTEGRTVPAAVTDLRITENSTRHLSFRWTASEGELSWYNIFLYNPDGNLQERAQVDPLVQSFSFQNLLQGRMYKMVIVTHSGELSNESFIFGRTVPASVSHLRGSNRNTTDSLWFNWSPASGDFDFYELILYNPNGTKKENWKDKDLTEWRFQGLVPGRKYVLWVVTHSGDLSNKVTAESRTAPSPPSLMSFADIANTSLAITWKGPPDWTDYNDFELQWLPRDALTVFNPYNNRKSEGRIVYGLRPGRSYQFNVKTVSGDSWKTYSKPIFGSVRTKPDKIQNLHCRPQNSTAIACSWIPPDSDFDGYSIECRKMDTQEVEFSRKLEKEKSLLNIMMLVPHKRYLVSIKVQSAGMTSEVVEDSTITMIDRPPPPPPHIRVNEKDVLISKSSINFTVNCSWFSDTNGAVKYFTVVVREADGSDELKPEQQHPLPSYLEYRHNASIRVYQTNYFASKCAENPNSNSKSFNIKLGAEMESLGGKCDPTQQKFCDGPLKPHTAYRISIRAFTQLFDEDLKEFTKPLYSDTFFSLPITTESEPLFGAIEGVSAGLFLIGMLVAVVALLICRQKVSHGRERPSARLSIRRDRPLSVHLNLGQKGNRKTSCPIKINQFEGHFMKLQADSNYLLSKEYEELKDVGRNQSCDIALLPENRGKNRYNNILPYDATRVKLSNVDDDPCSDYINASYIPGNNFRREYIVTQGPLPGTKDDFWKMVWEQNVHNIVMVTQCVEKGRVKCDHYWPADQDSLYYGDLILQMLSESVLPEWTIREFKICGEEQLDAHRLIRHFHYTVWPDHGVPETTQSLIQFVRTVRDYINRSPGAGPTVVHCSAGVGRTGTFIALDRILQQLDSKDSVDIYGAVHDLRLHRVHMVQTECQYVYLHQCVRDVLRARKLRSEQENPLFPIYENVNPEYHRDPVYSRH

Consider `COC(=O)N[C@@H](Cc1ccccc1)C(=O)N[C@@H](Cc1ccc(NS(=O)(=O)O)cc1)c1ncc(-c2ccccc2)s1` [4-{(S)-2-[(S)-2-(Methoxycarbonylamino)-3-phenylpropanamido]-2-(5-phenylthiazol-2-yl)ethyl}phenylsulfamic acid], for which the pIC50 is 9.52 in assay [1] and 6.09 in assay [2].

As to `CCOC(=O)Cc1csc([C@H](Cc2ccc(NS(=O)(=O)O)cc2)NC(=O)OC(C)(C)C)n1`, the pIC50 in assay [1] is 6.78; in assay [2] it was 4.30.

Consider `COC(=O)N[C@@H](Cc1ccccc1)C(=O)N[C@@H](Cc1ccc(NS(=O)(=O)O)cc1)c1csc(C2CC2)n1` [4-{(S)-2-(2-Cyclopropylthiazol-4-yl)-2-[(S)-2-(methoxy-carbonylamino)-3-phenylpropanamido]ethyl}phenylsulfamic acid], for which the negative-log IC50 (pIC50) in assay [1] is 9.70; in assay [2], 5.87.

With `COC(=O)N[C@@H](Cc1ccccc1)C(=O)N[C@@H](Cc1ccc(NS(=O)(=O)O)cc1)c1nc(C(C)(C)C)cs1` [4-{(S)-2-(4-tert-Butylthiazol-2-yl)-2-[(S)-2-(methoxycarbonylamino)-3-phenylpropanamido]ethyl}phenylsulfamic acid], the results for the pIC50 in assay [1] and in assay [2] were 9.70 and 6.15, respectively.

On to `CC(C)(C)C(=O)N[C@@H](Cc1ccc(NS(=O)(=O)O)cc1)c1nc(-c2ccc(-c3ccccc3)cc2)cs1` [(S)-4-(2-(4-(Biphen-4-yl)thiazol-2-yl)-2-pivalamidoethyl)phenylsulfamic acid], for which the pIC50 is 6.42 in assay [1] and 4.54 in assay [2].

In the case of `CCc1nc([C@H](Cc2ccc(NS(=O)(=O)O)cc2)NC(=O)[C@H](Cc2ccccc2)NC(=O)OC)sc1C` [4-{(S)-2-(4-Ethyl-5-methylthiazol-2-yl)-2-[(S)-2-(methoxy-carbonylamino)-3-phenyl-propanamido]ethyl}phenylsulfamic acid], the negative logarithm of the IC50 (pIC50) was 10.00 in assay [1] and 5.95 in assay [2].

For the compound `CC(C)(C)C(=O)N[C@@H](Cc1ccc(NS(=O)(=O)O)cc1)c1nc(-c2ccc3c(c2)OCCO3)cs1` [4-((S)-2-(4-(2,3-Dihydrobenzo[b][1,4]dioxin-6-yl)thiazol-2-yl)-2-pivalamidoethyl)phenylsulfamic acid], the pIC50 in assay [1] was 6.86; in assay [2], 4.42.

For the compound `CCCc1csc([C@H](Cc2ccc(NS(=O)(=O)O)cc2)NC(=O)[C@H](Cc2ccccc2)NC(=O)OC)n1` [4-{(S)-2-[(S)-2-(Methoxycarbonylamino)-3-phenylpropanamido]-2-(4-propylthiazol-2-yl)ethyl}phenylsulfamic acid], the pIC50 in assay [1] is 10.00; in assay [2] it was 5.99.

Turning to `CC(C)(C)OC(=O)N[C@@H](Cc1ccc(NS(=O)(=O)O)cc1)c1nc(-c2ccsc2)cs1` [4-((S)-2-(tert-Butoxycarbonylamino)-2-(4-(thiophen-3-yl)thiazol-2-yl)ethyl)phenyl sulfamic acid], the pIC50 in assay [1] is 7.35; in assay [2], 4.84.

On to `CCc1csc([C@H](Cc2ccc(NS(=O)(=O)O)cc2)NC(=O)C(C)(C)C)n1` [(S)-4-(2-(4-Ethylthiazol-2-yl)-2-pivalamidoethyl)phenyl-sulfamic acid], for which the negative logarithm of the IC50 (pIC50) in assay [1] was 7.07; in assay [2], 3.85.

On to `COC(=O)N[C@@H](Cc1ccccc1)C(=O)N[C@@H](Cc1ccc(NS(=O)(=O)O)cc1)c1csc(CS(=O)(=O)c2ccc(Cl)cc2)n1` [4-{(S)-2-{2-[(4-Chlorophenylsulfonyl)methyl]thiazol-4-yl}-2-[(S)-2-(methoxycarbonylamino)-3-phenylpropanamido]ethyl}phenylsulfamic acid], for which the values for the pIC50 in assay [1] and in assay [2] were 10.10 and 5.60, respectively.

`CC(C)(C)OC(=O)N[C@@H](Cc1ccc(NS(=O)(=O)O)cc1)c1nc(C(C)(C)C)cs1` [(S)-4-(2-(tert-Butoxycarbonylamino)-2-(4-tert-butylthiazol-2-yl)ethyl)phenyl sulfamic acid]: the results for the pIC50 in assay [1] and in assay [2] were 7.57 and 4.30, respectively.

Consider `COC(=O)N[C@@H](Cc1ccccc1)C(=O)N[C@@H](Cc1ccc(NS(=O)(=O)O)cc1)c1nc2c(s1)CCCC2` [4-{(S)-2-[(S)-2-(Methoxycarbonylamino)-3-phenylpropanamido]-2-(4,5,6,7-tetrahydrobenzo[d]thiazol-2-yl)ethyl}phenylsulfamic acid], for which the pIC50 in assay [1] was 9.40; in assay [2], 7.05.

For `COC(=O)N[C@@H](Cc1ccccc1)C(=O)N[C@@H](Cc1ccc(NS(=O)(=O)O)cc1)c1nc(-c2ccsc2)cs1` [4-{(S)-2-[(S)-2-(Methoxycarbonylamino)-3-phenylpropanamido]-2-[4-(thiophen-3-yl)thiazol-2-yl]ethyl}phenylsulfamic acid], the pIC50 is 10.05 in assay [1] and 6.36 in assay [2].

As to `COC(=O)N[C@@H](Cc1ccccc1)C(=O)N[C@@H](Cc1ccc(NS(=O)(=O)O)cc1)c1csc(-c2cnccn2)n1` [4-{(S)-2-[(S)-2-(Methoxycarbonylamino)-3-phenylpropanamido]-2-[2-(pyrazin-2-yl)thiazol-4-yl]ethyl}phenylsulfamic acid], the pIC50 in assay [1] was 8.52; in assay [2], 6.53.

In the case of `CC(=O)N[C@@H](Cc1ccccc1)C(=O)N[C@@H](Cc1ccc(NS(=O)(=O)O)cc1)c1nc(C(C)(C)C)cs1` [4-[(S)-2-((S)-2-Acetamido-3-phenylpropanamido)-2-(4-tert-butylthiazol-2-yl)ethyl]phenylsulfamic acid], the negative-log IC50 (pIC50) is 9.52 in assay [1] and 5.82 in assay [2].

As to `CC(C)(C)C(=O)N[C@@H](Cc1ccc(NS(=O)(=O)O)cc1)c1nc(-c2ccccc2)cs1` [(S)-4-(2-(4-Phenylthiazol-2-yl)-2-pivalamidoethyl)phenylsulfamic acid], the negative logarithm of the IC50 (pIC50) in assay [1] was 7.38; in assay [2], 4.08.

As for `COCc1csc([C@H](Cc2ccc(NS(=O)(=O)O)cc2)NC(=O)OC(C)(C)C)n1` [(S)-4-(2-(tert-Butoxycarbonylamino)-2-(4-(methoxymethyl)thiazol-2-yl)ethyl)-phenyl sulfamic acid], the negative logarithm of the IC50 (pIC50) in assay [1] was 6.74; in assay [2], 4.56.

As for `COC(=O)N[C@@H](Cc1ccccc1)C(=O)N[C@@H](Cc1ccc(NS(=O)(=O)O)cc1)c1nccs1` [4-{(S)-2-[(S)-2-(Methoxycarbonylamino)-3-phenylpropanamido]-2-(thiazol-2-yl)ethyl}phenylsulfamic acid], the figures for the pIC50 in assay [1] and in assay [2] were 8.22 and 5.99, respectively.

Take `COc1ccc(-c2csc([C@H](Cc3ccc(NS(=O)(=O)O)cc3)NC(=O)C(C)(C)C)n2)c(OC)c1` [4-((S)-2-(4-(2,4-Dimethoxyphenyl)thiazol-2-yl)-2-pivalamidoethyl)phenyl-sulfamic acid]: the negative-log IC50 (pIC50) in assay [1] was 7.07; in assay [2], 4.37.

In the case of `COc1cccc(Cc2csc([C@H](Cc3ccc(NS(=O)(=O)O)cc3)NC(=O)C(C)(C)C)n2)c1` [(S)-4-(2-(4-(3-Methoxybenzyl)thiazol-2-yl)-2-pivalamidoethyl)phenylsulfamic acid], the negative-log IC50 (pIC50) in assay [1] was 6.88; in assay [2], 4.30.

In the case of `COC(=O)N[C@@H](Cc1ccccc1)C(=O)N[C@@H](Cc1ccc(NS(=O)(=O)O)cc1)c1nc(C)c(C)s1` [4-{(S)-2-(4,5-Dimethylthiazol-2-yl)-2-[(S)-2-(methoxycarbonylamino)-3-phenyl-propanamido]ethyl}phenylsulfamic acid], the negative logarithm of the IC50 (pIC50) in assay [1] was 9.00; in assay [2], 6.51.

With “(S)-4-(2-(tert-Butoxycarbonyl)-2-(4-(2-(2-methoxy-2-oxoyethyl amino)-2-oxoethyl)thiazole-2-yl)ethyl)phenylsulfamic acid”, the negative logarithm of the IC50 (pIC50) in assay [1] was 6.88; in assay [2], 4.30.

Regarding `CCc1csc([C@H](Cc2ccc(NS(=O)(=O)O)cc2)NC(=O)[C@@H](Cc2ccccc2)NC(=O)OC(C)(C)C)n1` [4-{(S)-2-[(R)-2-(tert-butoxycarbonylamino)-3-phenylpropanamido]-2-(4-ethylthiazol-2-yl)ethyl}phenylsulfamic acid], the pIC50 in assay [1] is 8.40; in assay [2], 5.15.

As to `COC(=O)N[C@@H](Cc1ccccc1)C(=O)N[C@@H](Cc1ccc(NS(=O)(=O)O)cc1)c1nc(C2CC2)cs1` [4-{(S)-2-(4-Cyclopropylthiazol-2-yl)-2-[(S)-2-(methoxy-carbonylamino)-3-phenylpropanamido]ethyl}phenylsulfamic acid], the values for the negative logarithm of the IC50 (pIC50) in assay [1] and in assay [2] were 11.00 and 6.52, respectively.

As to `CCCc1csc([C@H](Cc2ccc(NS(=O)(=O)O)cc2)NC(=O)OC(C)(C)C)n1` [(S)-4-(2-(tert-Butoxycarbonylamino)-2-(4-propylthiazol-2-yl)ethyl)phenyl sulfamic acid], the values for the negative-log IC50 (pIC50) in assay [1] and in assay [2] were 7.40 and 4.45, respectively.

Regarding `CCOC(=O)c1csc([C@H](Cc2ccc(NS(=O)(=O)O)cc2)NC(=O)[C@H](Cc2ccccc2)NC(=O)OC)n1` [4-{(S)-2-(4-(Ethoxycarbonyl)thiazol-2-yl)-2-[(S)-2-(methoxy-carbonylamino)-3-phenylpropanamido]ethyl}phenylsulfamic acid], the negative-log IC50 (pIC50) in assay [1] is 9.70; in assay [2] it was 7.15.

On to `COC(=O)N[C@@H](Cc1ccccc1)C(=O)N[C@@H](Cc1ccc(NS(=O)(=O)O)cc1)c1nc(C)cs1` [4-{(S)-2-[(S)-2-(Methoxycarbonylamino)-3-phenylpropanamido]-2-(4-methylthiazol-2-yl)ethyl}phenylsulfamic acid], for which the negative logarithm of the IC50 (pIC50) in assay [1] is 9.00; in assay [2], 6.32.

The record behind these values is patent publication US8258311B2, “Human protein tyrosine phosphatase inhibitors and methods of use” (Aerpio Therapeutics Inc., priority 2006, dated 2012).
